The record followed here is US20230339886A1 (University of Florida Research Foundation, Incorporated, priority 2020, published 2023).

Some results are limits rather than exact numbers.

In the first experiment the target is T1, REV-ERBα LBD (human; residues 281-614 Δ324-422) (Homo sapiens, UniProt P20393, DEL324-422).
T1 construct: 6×Histag-REV-ERBα LBD (human; residues 281-614 Δ324-422); made in house; host or cells: Escherichia coli
T1 sequence (P20393 with tags, fused parts or gaps DEL324-422): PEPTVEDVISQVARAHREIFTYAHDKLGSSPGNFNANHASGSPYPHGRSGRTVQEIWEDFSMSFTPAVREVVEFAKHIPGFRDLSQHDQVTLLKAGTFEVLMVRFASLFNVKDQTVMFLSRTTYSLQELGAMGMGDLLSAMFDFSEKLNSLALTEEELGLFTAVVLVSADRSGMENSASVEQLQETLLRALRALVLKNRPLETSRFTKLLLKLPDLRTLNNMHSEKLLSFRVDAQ
T1 sequence (Q9Y618 2335-2356 partner limits assumed): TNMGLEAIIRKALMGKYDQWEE
Put plainly: TR-FRET corepressor interaction assay (REV-ERBα LBD, FITC-SMRT peptide). It counts as biochemical. The note with it: FITC-SMRT peptide, read-out: REVERBα agonism (EC50 class, FRET assay). The essentials: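 Compound serial dilutions (in DMSO, triplicate) incubated 2 h at 4 °C; Tb donor excited at 340 nm, emission read at 495 nm and FITC acceptor at 520 nm. TR-FRET ratio (520/495 nm) plotted against ligand concentration and fitted to a sigmoidal dose-response curve.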
(In general: Time-resolved FRET reads energy transfer from a long-lived donor to a nearby acceptor.)
As for `CC(C)(C)Cn1cc([C@H](NS(=O)(=O)C2CCC2)C(F)(F)F)c2cc(F)c(-c3cccnc3C#N)cc21` (racemic) [Example 529, (S)—N-(1-(6-(2-cyanopyridin-3-yl)-5-fluoro-1-neopentyl-1H-indol-3-yl)-2,2,2-trifluoroethyl)cyclobutanesulfonamide], the EC50 was less than 500 nM. Still for that read-out and setting: the result for `CC(F)(F)Cn1cc([C@H](NS(=O)(=O)C2CCC2)C(F)(F)F)c2ccc(-c3ccccc3C(F)(F)F)cc21` [Example 442, (S)—N-(1-(1-(2,2-difluoropropyl)-6-(2-(trifluoromethyl)phenyl)-1H-indol-3-yl)-2,2,2-trifluoroethyl)cyclobutanesulfonamide] reads 500 to 3000 nM. On to `CC(C)(C)Cn1cc([C@H](NS(=O)(=O)C2CCC2)C(F)F)c2ccc(-c3ccccc3C(F)(F)F)c(F)c21` [Example 552, (S)—N-(2,2-difluoro-1-(7-fluoro-1-neopentyl-6-(2-(trifluoromethyl)phenyl)-1H-indol-3-yl)ethyl)cyclobutanesulfonamide], for which the half-maximal effective concentration (EC50) is less than 500 nM. As for `CC(C)(C)Cn1cc([C@H](CF)NS(=O)(=O)C2CCC2)c2ccc(-c3ccccc3C(F)(F)F)cc21` [Example 429, (R)—N-(2-fluoro-1-(1-neopentyl-6-(2-(trifluoromethyl)phenyl)-1H-indol-3-yl)ethyl)cyclobutanesulfonamide], the 50% effective concentration (EC50) is less than 500 nM. As for `CC(C)(C)Cn1cc([C@H](NS(=O)(=O)C2CCC2)C(F)F)c2ccc(-c3ccc(F)cc3C(F)(F)F)cc21` [Example 562, (S)—N-(2,2-difluoro-1-(6-(4-fluoro-2-(trifluoromethyl)phenyl)-1-neopentyl-1H-indol-3-yl)ethyl)cyclobutanesulfonamide], the concentration giving a half-maximal response (EC50) was less than 500 nM. For `CC(C)C(=O)n1cc([C@H](NS(=O)(=O)C2CCC2)C(F)(F)F)c2ccc(-c3ccccc3C(F)(F)F)cc21` [Example 504, (S)—N-(2,2,2-trifluoro-1-(1-isobutyryl-6-(2-(trifluoromethyl)phenyl)-1H-indol-3-yl)ethyl)cyclobutanesulfonamide], the 50% effective concentration (EC50) is less than 500 nM. Consider `CCC(C)n1cc([C@H](NS(=O)(=O)C2CCC2)C(F)(F)F)c2ccc(-c3ccccc3C(F)(F)F)cc21` (stereo partly drawn) [Example 446, N-((1S)-1-(1-(sec-butyl)-6-(2-(trifluoromethyl)phenyl)-1H-indol-3-yl)-2,2,2-trifluoroethyl)cyclobutanesulfonamide], for which the concentration giving a half-maximal response (EC50) is less than 500 nM. On the same count and under the same terms, in the case of `N#CC1(Cn2cc([C@H](NS(=O)(=O)C3CC3)C(F)(F)F)c3cc(F)c(-c4ccccc4C(F)(F)F)cc32)CC1` [Example 476, N-[(1S)-1-[1-[(1-cyanocyclopropyl)methyl]-5-fluoro-6-[2-(trifluoromethyl)phenyl]indol-3-yl]-2,2,2-trifluoro-ethyl]cyclopropanesulfonamide] it was 500 to 3000 nM; in that of `CC(C)(O)Cn1cc([C@H](NS(=O)(=O)C2CCC2)C(F)(F)F)c2cc(F)c(-c3ccccc3C(F)(F)F)cc21` [Example 478, N-[(1S)-2,2,2-trifluoro-1-[5-fluoro-1-(2-hydroxy-2-methyl-propyl)-6-[2-(trifluoromethyl)phenyl]indol-3-yl]ethyl]cyclobutanesulfonamide], 500 to 3000 nM.

Regarding `CC(C)(C)Cn1cc([C@H](NS(=O)(=O)C2CC2)C(F)F)c2ccc(-c3ccc(F)cc3C(F)(F)F)cc21` [Example 551, (S)—N-(2,2-difluoro-1-(6-(4-fluoro-2-(trifluoromethyl)phenyl)-1-neopentyl-1H-indol-3-yl)ethyl)cyclopropanesulfonamide], the EC50 was less than 500 nM.

On to `CC(C)(C)Cn1cc([C@H](NS(=O)(=O)C2CCC2)C(F)(F)F)c2ccc(C3CC3)cc21` [Example 501, (S)—N-(1-(6-cyclopropyl-1-neopentyl-1H-indol-3-yl)-2,2,2-trifluoroethyl)cyclobutanesulfonamide], for which the EC50 was less than 500 nM.

Staying with this experiment, now noted: Table 2, read-out: REVERBα agonism (EC50 class, FRET assay).
On to `Cc1cccc(C)c1-c1ccc2c(CCNS(=O)(=O)N(C)C)cn(CC(C)C)c2c1` [Example 81, N-{2-[6-(2,6-dimethylphenyl)-1-(2-methylpropyl)-1H-indol-3-yl]ethyl}-N,N-dimethyl-sulfuric diamide], for which the EC50 was less than 500 nM. On to `CC(C)c1ccc2c([C@H](NS(=O)(=O)C3CC3)C(F)(F)F)cn(CC(C)(C)C)c2c1` [Example 335, (S)—N-(2,2,2-trifluoro-1-(6-isopropyl-1-neopentyl-1H-indol-3-yl)ethyl)cyclopropanesulfonamide], for which the EC50 was less than 500 nM. On to `CC(C)Cn1cc(CNS(=O)(=O)C(C)C)c2cc(F)c(-c3ccccc3C(F)(F)F)cc21` [Compound 269], for which the EC50 was less than 500 nM. Regarding `CC(C)Cn1cc([C@H](NS(=O)(=O)N(C)C)C(F)(F)F)c2cc(F)c(-c3ccccc3Cl)cc21` [Example 326, {[(1S)-1-[6-(2-chlorophenyl)-5-fluoro-1-(2-methylpropyl)-1H-indol-3-yl]-2,2,2-trifluoroethyl]sulfamoyl}dimethylamine], the EC50 was less than 500 nM. The same measure, in the same setting: in the case of `CC(C)Cc1cn(CCS(=O)(=O)C(C)(C)C)c2ccc(Br)cc12` [Example 174, 5-bromo-1-(2-(tert-butylsulfonyl)ethyl)-3-isobutyl-1H-indole] it was 500 to 3000 nM; in that of `O=S(=O)(N[C@@H](c1cn(CC2CCCC2)c2cc(-c3ccccc3C(F)(F)F)c(F)cc12)C(F)(F)F)C1CCC1` [Example 421, (S)—N-(1-(1-(cyclopentylmethyl)-5-fluoro-6-(2-(trifluoromethyl)phenyl)-1H-indol-3-yl)-2,2,2-trifluoroethyl)cyclobutanesulfonamide], less than 500 nM; in that of `CC(C)Cn1cc(CNS(=O)(=O)C(C)C)c2cc(F)c(-c3ccccc3Cl)cc21` [Compound 267], less than 500 nM. Consider `CC(C)Cn1cc(CCNS(=O)(=O)N(C)C)c2ccc(-n3ccnc3)cc21` [Example 93, N-{2-[6-(1H-imidazol-1-yl)-1-(2-methylpropyl)-1H-indol-3-yl]ethyl}-N,N-dimethylsulfuric diamide], for which the EC50 lay within 500 to 3000 nM. Same read-out and setting: in the case of `CC(C)n1cc(CCNS(=O)(=O)N(C)C)c2ccc(-c3ccncc3)cc21` [Example 129, N′-{2-[6-(pyridin-4-yl)-1-isopropyl-1H-indol-3-yl]ethyl}-N,N-dimethylsulfuric diamide] it was 500 to 3000 nM; in that of `CC(C)Cn1cc(C2(NS(=O)(=O)N(C)C)CC2)c2ccc(-c3ccncc3)cc21` [Example 207, dimethyl({1-[1-(2-methylpropyl)-6-(pyridin-4-yl)-1H-indol-3-yl]cyclopropyl}sulfamoyl)amine], more than 3000 nM; in that of `CC(C)Cn1cc(C2(CNS(=O)(=O)N(C)C)CC2)c2ccc(-c3ccncc3)cc21` [Example 178, dimethyl[({1-[1-(2-methylpropyl)-6-(pyridin-4-yl)-1H-indol-3-yl]cyclopropyl}methyl)sulfamoyl]amine], less than 500 nM. The same measure, in the same setting: the result for `CC(C)Cn1cc([C@H](NS(=O)(=O)C2CC2)C(F)(F)F)c2ccc(-c3ccc(F)cc3)cc21` [Example 308, (S)—N-(2,2,2-trifluoro-1-(6-(4-fluorophenyl)-1-isobutyl-1H-indol-3-yl)ethyl)cyclopropanesulfonamide] reads 500 to 3000 nM. Consider `CC(C)Cn1cc([C@H](NS(=O)(=O)C2CC2)C(F)(F)F)c2ccc(-c3ccccc3Cl)cc21` [Example 311, (S)—N-(1-(6-(2-chlorophenyl)-1-isobutyl-1H-indol-3-yl)-2,2,2-trifluoroethyl)cyclopropanesulfonamide], for which the EC50 was less than 500 nM. Same read-out and setting: in the case of `CNC(=O)Cn1cc(CCNS(=O)(=O)N(C)C)c2ccc(Br)cc21` [Example 166, 2-(6-bromo-3-(2-((N,N-dimethylsulfamoyl)amino)ethyl)-1H-indol-1-yl)-N-methylacetamide] it was 500 to 3000 nM; in that of `CC(C)Cn1cc(CNS(=O)(=O)N(C)C)c2ccc(-c3ccncc3)cc21` [Compound 238], 500 to 3000 nM. `N#CC1(Cn2cc([C@H](NS(=O)(=O)C3CCC3)C(F)(F)F)c3cc(F)c(-c4ccccc4C(F)(F)F)cc32)CC1` [Example 392, [(1S)-1-[1-[(1-cyanocyclopropyl)methyl]-5-fluoro-6-[2-(trifluoromethyl)phenyl]indol-3-yl]-2,2,2-trifluoro-ethyl]cyclobutanesulfonamide]: the EC50 is less than 500 nM.

Consider `CN(C)S(=O)(=O)N[C@@H](c1cn(CC(C)(C)C)c2cc(-c3ccccc3Cl)c(F)cc12)C(F)(F)F` [Example 330, {[(1S)-1-[6-(2-chlorophenyl)-1-(2,2-dimethylpropyl)-5-fluoro-1H-indol-3-yl]-2,2,2-trifluoroethyl]sulfamoyl}dimethylamine], for which the EC50 was less than 500 nM.

Take `CC(C)(C)Cc1cn(CCNS(=O)(=O)C2CC2)c2ccc(-c3ccc(F)c4ccccc34)cc12` [Example 219, N-(2-(5-(4-fluoronaphthalen-1-yl)-3-neopentyl-1H-indol-1-yl)ethyl)cyclopropanesulfonamide]: the EC50 is less than 500 nM.

Turning to `CC(C)(C)Cn1cc([C@H](NS(=O)(=O)C2CC2)C(F)(F)F)c2ccc(-c3c(F)cccc3C(F)(F)F)cc21` [Example 373, (S)—N-(2,2,2-trifluoro-1-(6-(2-fluoro-6-(trifluoromethyl)phenyl)-1-neopentyl-1H-indol-3-yl)ethyl)cyclopropanesulfonamide], the EC50 was less than 500 nM. Still for that read-out and setting: in the case of `CC(C)Cn1cc(CCNS(=O)(=O)N(C)C)c2ccc(-c3ccccc3C(=O)OC(C)(C)C)cc21` [Example 79] it was 500 to 3000 nM; in that of `CC(C)S(=O)(=O)NCCc1cn(CC(C(F)(F)F)C(F)(F)F)c2cc(-c3ccncc3)ccc12` [Compound 271], 500 to 3000 nM. On the same count and under the same terms, in the case of `CC(C)Cn1cc([C@H](NS(=O)(=O)C2CC2)C(F)(F)F)c2ccc(Br)cc21` [Example 306, (S)—N-(1-(6-bromo-1-isobutyl-1H-indol-3-yl)-2,2,2-trifluoroethyl)cyclopropanesulfonamide] it was less than 500 nM.

The EC50 is the concentration that produces a half-maximal response.
